Source: ChEMBL document CHEMBL1148914, “Cadinane sesquiterpenes from the brown alga Dictyopteris divaricata” (J Nat Prod, 2004)

Experiments:
Format in all cases: functional, cell-based
A549 = experiment: Cytotoxicity against human A549 cells by MTT assay
BGC-823 = experiment: Cytotoxicity against human BGC823 cells by MTT assay
MCF7 = experiment: Cytotoxicity against human MCF7 cells by MTT assay
Bel-7402 = experiment: Cytotoxicity against human Bel7402 cells by MTT assay
HCT-8 = experiment: Cytotoxicity against human HCT8 cells by MTT assay

Measured: IC50

C=C1CC[C@]2(O)[C@@H]([C@@H]1O)[C@H](C(C)C)CC[C@H]2C
> 10 µg/mL: all assays above

CC(C)[C@@H]1CC[C@@H](C)[C@]2(O)CCC(C=O)=C[C@@H]12
> 10 µg/mL: all assays above

CC1=CC[C@]2(O)[C@@H]([C@@H]1O)[C@H](C(C)C)CC[C@H]2C
> 10 µg/mL: all assays above

CC1=CC[C@@]2(O)[C@H](C)CC[C@@H](C(C)C)[C@@H]2C1=O
> 10 µg/mL: all assays above

C=C1CC[C@]2(O)[C@H]([C@H](C(C)(C)O)CC[C@H]2C)[C@H]1O
> 10 µg/mL: all assays above

CC(C)[C@@H]1CC[C@@H](C)[C@]2(O)CC[C@@](C)(O)[C@@H](O)[C@@H]12
> 10 µg/mL: all assays above

CC1=CC[C@]2(O)[C@@H]([C@H]1O)[C@H](C(C)C)CC[C@H]2C
> 10 µg/mL: all assays above
